Measured values published in EP0370382A2, “Urea dipeptide derivatives with a renin-inhibiting activity, process to produce them, compositions containing them and their use” (HOECHST AKTIENGESELLSCHAFT, priority 1988, dated 1990).

Each compound was assayed against T1, Renin (Homo sapiens, UniProt P00797) (assay: Renin inhibition in human plasma (angiotensin I release, radioimmunoassay)). Conditions: 37°C, 1 h incubation, phosphate buffer pH 7.4, max. 1 % DMSO, read from % residual plasma renin activity vs. concentration, read-out: IC₅₀.
T1 construct: Das Blut wird von freiwilligen Probanden gewonnen; from tissue; host or cells: human blood plasma (EDTA) from volunteers
T1 sequence (P00797 67-406): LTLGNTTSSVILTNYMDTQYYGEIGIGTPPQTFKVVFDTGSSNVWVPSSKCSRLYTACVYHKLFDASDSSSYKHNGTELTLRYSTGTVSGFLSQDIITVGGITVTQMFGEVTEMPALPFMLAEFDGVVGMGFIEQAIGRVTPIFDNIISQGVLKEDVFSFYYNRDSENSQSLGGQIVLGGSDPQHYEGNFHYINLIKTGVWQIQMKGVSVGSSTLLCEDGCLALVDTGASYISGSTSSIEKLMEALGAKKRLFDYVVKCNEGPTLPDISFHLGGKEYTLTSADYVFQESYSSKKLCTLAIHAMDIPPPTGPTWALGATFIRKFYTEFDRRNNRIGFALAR
Type: biochemical
Protocol: Die Wirksamkeit von Renin-Hemmern kann durch in-vitro-Tests überprüft werden. Hierbei wird die Verminderung der Bildung von Angiotensin I in verschiedenen Systemen (Humanplasma, gereinigtes Humanrenin) gemessen.
Z.B. Humanplasma, welches sowohl Renin als auch Angiotensinogen enthält, wird bei 37°C mit der zu testenden Verbindung inkubiert. Dabei wird aus Angiotensinogen unter der Einwirkung von Renin Angiotensin I freigesetzt, das anschließend mit einem handelsüblichen Radioimmunoassay gemessen werden kann. Diese Angiotensin-Freisetzung wird durch Renin-Inhibitoren gehemmt.
Das Blut wird von freiwilligen Probanden gewonnen (ca. 0,5 l pro Person; Bluko-Entnahmegerät der Fa. ASID Bonz und Sohn, Unterschleißheim) und in teilweise evakuierten Flaschen unter Eiskühlung aufgefangen. Die Gerinnung wird durch Zugabe von EDTA (Endkonzentration 10 mM) verhindert. Nach dem Zentrifugieren (Rotor HS 4 (Sorvall), 3 500 Upm, 0-4°C, 15 min; wiederholen, falls erforderlich) wird das Plasma vorsichtig abpipettiert und in geeigneten Portionen bei -30°C eingefroren. Für den Test werden nur Plasmen mit ausreichend hoher Reninaktivität verwendet. Plasmen mit niedriger Reninaktivität werden durch eine Kältebehandlung (-4°C, 3 Tage) aktiviert (Prorenin → Renin).
Angiotensin I wird mit dem Renin-Maia®-Kit (Serono Diagnostics S.A., Coinsins, Schweiz) bestimmt. Die Inkubation des Plasmas wird nach der dort angegebenen Anleitung durchgeführt: Inkubationsansatz: 1000 µl Plasma (bei 0-4°C aufgetaut) 100 µl Phosphatpuffer (pH 7,4) Zusatz von 10⁻⁴ M Ramiprilat) 10 µl PMSF-Lösung 10 µl 0,1 % Genapol PFIC 12 µl DMSO bzw. Testpräparat
Die Testpräparate werden i.a. 10⁻² M in 100 % Dimethylsulfoxid (DMSO) gelöst und mit DMSO entsprechend verdünnt; der Inkubationsansatz enthält max. 1 % DMSO.
Die Ansätze werden in Eis gemischt und für 1 Stunde zur Inkubation in ein Wasserbad (37°C) gestellt. Aus einem zusätzlichen Ansatz ohne Inhibitor werden ohne weitere Inkubation insgesamt 6 Proben (jeweils 100 µl) zur Bestimmung des Ausgangs-Angiotensin I-Gehaltes des verwendeten Plasmas entnommen.
Die Konzentrationen der Testpräparate werden so gewählt, daß etwa der Bereich von 10-90 % Enzymhemmung abgedeckt ist (mindestens fünf Konzentrationen). Am Ende der Inkubationszeit werden aus jedem Ansatz drei 100 µl-Proben in vorgekühlten Eppendorf-Gefäßen auf Trockeneis eingefroren und bei ca. -25°C für die Angiotensin I-Bestimmung aufbewahrt (Mittelwert aus drei Einzelproben).
Es wird exakt der Gebrauchsanweisung des RIA-Kits (Renin-Maia®-Kit, Serono Diagnostics S.A., Coinsins, Schweiz) befolgt.
Die Eichkurve umfaßt den Bereich von 0,2 bis 25,0 ng Angiotensin I pro ml. Der Basis-Angiotensin I-Gehalt des Plasmas wird von allen Meßwerten abgezogen. Die Plasma-Renin-Aktivität (PRA) wird als ng Ang I/ml x Stunde angegeben. PRA-Werte in Gegenwart der Testsubstanzen werden auf einen Ansatz ohne Inhibitor (= 100 %) bezogen und als % Restaktivität angegeben. Aus der Auftragung von % Restaktivität gegen die Konzentration (M) des Testpräparates (logarithmische Skala) wird der IC₅₀-Wert abgelesen.

| Structure (SMILES) | IC50 |
| --- | --- |
| CCNC(=O)N[C@@H](Cc1ccccc1)C(=O)N[C@@H](Cc1c[nH]cn1)C(=O)N[C@@H](CC1CCCCC1)[C@@H](O)CCCc1ccccn1 [Beispiel 1, 1-Cyclohexyl-6-(2-pyridyl)-2S-(N-(ethylaminocarbonyl-Phe-His)-amino)-3S-hexanol] | 2000 nM |
| CCC[C@H](NC(=O)[C@H](Cc1ccccc1)NC(=O)NC(C)C)C(=O)N[C@@H](CC1CCCCC1)[C@@H](O)CCCc1ccccn1 [Beispiel 2, 1-Cyclohexyl-6-(2-pyridyl)-2S-(N-(isopropylaminocarbonyl-Phe-Nva)-amino)-3S-hexanol] | 620 nM |
| CCC[C@H](NC(=O)[C@H](Cc1ccccc1)NC(=O)NCC(C)(C)C)C(=O)N[C@@H](CC1CCCCC1)[C@@H](O)CCCc1ccccn1 [Beispiel 3, 1-Cyclohexyl-6-(2-pyridyl)-2S-(N-(2,2-dimethylpropylaminocarbonyl-Phe-Nva)-amino)-3S-hexanol] | 900 nM |
| CCC[C@H](NC(=O)[C@H](Cc1ccccc1)NC(=O)NCC)C(=O)N[C@@H](CC1CCCCC1)[C@@H](O)CCCc1ccccn1 [Beispiel 4, 1-Cyclohexyl-6-(2-pyridyl)-2S-(N-(ethylaminocarbonyl-Phe-Nva)-amino)-3S-hexanol] | 380 nM |
| CC(C)(C)NC(=O)N[C@@H](Cc1ccccc1)C(=O)N[C@@H](Cc1c[nH]cn1)C(=O)N[C@@H](CC1CCCCC1)[C@@H](O)CCCc1ccccn1 [Beispiel 5] | 1000 nM |
| CCC[C@H](NC(=O)[C@H](Cc1ccccc1)NC(=O)NC(C)(C)C)C(=O)N[C@@H](CC1CCCCC1)[C@@H](O)CCCc1ccccn1 [Beispiel 6, 1-Cyclohexyl-6-(2-pyridyl)-2S-(N-(tert.butylaminocarbonyl-Phe-Nva)-amino)-3S-hexanol] | 400 nM |
| CCC[C@H](NC(=O)[C@H](Cc1cccs1)NC(=O)NC(C)(C)C)C(=O)N[C@@H](CC1CCCCC1)[C@@H](O)CCCc1ccccn1 [Beispiel 7, 1-Cyclohexyl-6-(2-pyridyl)-2S-(N-(tert.butylaminocarbonyl-Thi-Nva)-amino)-3S-hexanol] | 260 nM |
| CCC[C@H](NC(=O)[C@H](Cc1ccc(OC)cc1)NC(=O)NC(C)(C)C)C(=O)N[C@@H](CC1CCCCC1)[C@@H](O)CCCc1ccccn1 [Beispiel 8] | > 10000 nM |
| CCC[C@H](NC(=O)[C@H](Cc1ccccc1)NC(=O)NC(C)(C)C)C(=O)N[C@@H](CC1CCCCC1)[C@H](O)CCCc1ccccn1 [Beispiel 9, 1-Cyclohexyl-6-(2-pyridyl)-2S-(N-(tert.butylaminocarbonyl-Phe-Nva)-amino)-3R-hexanol] | 6500 nM |
| CC(C)(C)NC(=O)N[C@@H](Cc1ccccc1)C(=O)N[C@@H](Cc1c[nH]cn1)C(=O)N[C@@H](CC1CCCCC1)[C@H](O)CCCc1ccccn1 [Beispiel 10, 1-Cyclohexyl-6-(2-pyridyl)-2S-(N-(tert.butylaminocarbonyl-Phe-His)-amino)-3R-hexanol] | > 1000 nM |
| CCNC(=O)N[C@@H](Cc1ccccc1)C(=O)N[C@@H](Cc1c[nH]cn1)C(=O)N[C@@H](CC1CCCCC1)[C@H](O)CCCc1ccccn1 [Beispiel 11, 1-Cyclohexyl-6-(2-pyridyl)-2S-(N-(ethylaminocarbonyl-Phe-His)-amino)-3R-hexanol] | 900 nM |
| CCC[C@H](NC(=O)[C@H](Cc1ccccc1)NC(=O)NC(C)C)C(=O)N[C@@H](CC1CCCCC1)[C@H](O)CCCc1ccccn1 [Beispiel 12, 1-Cyclohexyl-6-(2-pyridyl)-2S-(N-(isopropylaminocarbonyl-Phe-Nva)-amino)-3R-hexanol] | 5500 nM |
| CCC[C@H](NC(=O)[C@H](Cc1ccccc1)NC(=O)NCC(C)(C)N)C(=O)N[C@@H](CC1CCCCC1)[C@@H](O)CCCc1ccccn1 [Beispiel 13, 1-Cyclohexyl-6-(2-pyridyl)-2S-(N-(2-amino-2-methylpropylaminocarbonyl-Phe-Nva)-amino)-3S-hexanol] | 340 nM |
| CC(C)(C)NC(=O)N[C@@H](Cc1ccccc1)C(=O)N[C@@H](CC(N)=O)C(=O)N[C@@H](CC1CCCCC1)[C@@H](O)CCCc1ccccn1 [Beispiel 14] | 8000 nM |
| CCC[C@H](NC(=O)[C@H](Cc1ccccc1)NC(=O)NC(C)(C)C(=O)O)C(=O)N[C@@H](CC1CCCCC1)[C@@H](O)CCCc1ccccn1 [Beispiel 29, 1-Cyclohexyl-6-(2-pyridyl)-2S-[N-[(1-carboxy-1-methylethylaminocarbonyl)-Phe-Nva]-amino]-3S-hexanol] | 650 nM |
